According to US4190666A, “Anti-inflammatory 4,5-diarly-2-(substituted-thio)imidazoles and their corresponding sulfoxides and sulfones” (E. I. Du Pont de Nemours and Company, priority 1978, dated 1980):
Where two headings read alike, the source gives them in different places.

Assays:
[1] = tested on: established adjuvant-induced arthritis in rats; test: Established adjuvant-induced arthritis in rats (therapeutic, paw volume); assay type: in vivo, Charles River Lewis male rats; details: Rattus norvegicus
[2] = tested on: non-established adjuvant-induced arthritis in rats; test: Non-established adjuvant-induced arthritis in rats (prevention of development, paw volume); assay type: in vivo, Charles River Lewis male rats; details: for ED50: Rattus norvegicus, read-out: ED50% non-established arthritis; for effectiveness in preventing development of arthritis compared with treating established arthritis: non-established vs established arthritis, rats
Description: Non-Established Adjuvant-Induces Arthritis in Rats
A test used primarily to determine the effects of compounds on the immunological reactions involved in the induction process and to prevent the development of arthritis.
Charles River Lewis male rats (130-150 grams) are injected subcutaneously in the plantar area of the right hind paw with 0.1 ml of adjuvant (Difco heat-killed, lyophilized Mycobacterium butyricum suspended in mineral oil 5 mg/ml). 40 Non-arthritic controls are injected with mineral oil. Groups of 20 rats are given single, daily oral doses of compound (in PVA-Acacia vehicle, 10 ml/kg) or vehicle by gavage beginning immediately following paw injection for a total of 14 doses. The paw volume of the uninjected (left) hind paw is measured 24 hours after the last dose using a Ugo Basile Volume differential meter Model 7101. The ED50% decrease from control is determined as described above.

[3] = tested on: plaque forming (antibody producing) spleen cells of rats with adjuvant-induced arthritis; test: Modified Jerne spleen cell hemolytic plaque assay; assay type: in vivo, rats (Charles River Lewis); details: for effect on number of plaque forming cells (PFC): arthritic rats
Description: MODIFIED JERNE SPLEEN CELL HEMOLYTIC PLAQUE ASSAY
A modification of the technique described by N. K. Jerne and A. A. Nordin (Science, 140, 450, 1963) was used in these studies. Rats (Charles River Lewis) with adjuvant-induced arthritis (and non-arthritic controls) were dosed orally ounce per day with PVA-Acacia vehicle* or compounds in vehicle from day 14 (following adjuvant injection) to day 20. The animals were sensitized with sheep red blood cells (SRBC) (0.2 ml of a 10% suspension=[…]) I.V. on day 17. The SRBC (Microbiological Associates) were washed 3 times in 0.9% sodium chloride solution prior to injection. On day 21 the rats were anesthetized with 1% sodium pentobarbital I.P. and the spleens were removed. Each spleen was placed on a stainless steel screen suspended over a plastic beaker in an ice bath and gently macerated with a glass syringe plunger. The cells were washed through the mesh into the beaker using a pasteur pipette to apply about 10 ml of Eagle's Minimal Essential Medium (MEM) during the maceration process until only fibrous material remained on the screen. Large particles were allowed to settle out for about 5 minutes and about 5 ml of supernatant was transferred to a plastic tube. Dilutions of 1:10 and 1:20 were made in cold MEM.
Plating: 2 ml of 0.7% Agarose (1.4% diluted 1:2 with 2X Eagles MEM) and 0.2 ml of a 10% SRBC suspension were pre-warmed in a 45° C. water bath. 20 Lambda of spleen cell dilution were added, mixed gently and poured into a supporting layer of 2 ml of 1.4% Agarose in a 60×15 mm plastic petri plate. Plates were incubated at 37° C. for 1.5 hours in a humidified incubator. 1.5 ml of guinea pig complement (diluted 1:10 with MEM) was added and incubation was continued for 1 hour longer.
Zones of hemolysis (plaques) per plate were counted without magnification against a diffuse light source. Assuming each plaque to have resulted from hemolysin produced by a single spleen cell, the number of plaque forming cells (PFC) per million spleen cells was calculated for each dilution. The statistical calculations (mean, standard error and "t" test) included the PFC/million count for each dilution of each spleen.

[4] = tested on: B lymphocytes in spleen cell suspensions; details: for effect on B lymphocyte proportion / lymphocyte population: arthritic rats
[5] = tested on: immunologic reactions / rheumatoid arthritis; details: background; cited from earlier work
[6] = po, Table V, read-out: ED50% established arthritis
[7] = po, established arthritis, 7 daily doses, ED50% decrease from control paw volume, Tables I-III, read-out: Adjuvant Arthritis (ED50%)
[8] = Table V, oral, 14 daily doses from adjuvant injection

FC(F)C(F)(F)Sc1nc(-c2ccc(Cl)cc2)c(-c2ccc(Cl)cc2)[nH]1 [Example 39]
ED50 [1, 6]: 0.2 mg/kg
ED50 [1, 7]: 0.3 mg/kg
ED50 [2, 8]: 0.06 mg/kg
mean plaque forming cells per million spleen cells (N = 20) ([3]; daily oral dose 0.1 mg/kg): 788 cells per million spleen cells
mean plaque forming cells per million spleen cells (N = 20) ([3]; daily oral dose 1.0 mg/kg): 488 cells per million spleen cells
mean % B cells ([4]; daily oral dose 0.2 mg/kg, pooled data from 2 experiments (N = 10)): 37%
mean % B cells ([4]; daily oral dose 2.0 mg/kg, pooled data from 2 experiments (N = 10)): 35%

COc1ccc2c(c1)c(CC(=O)O)c(C)n2C(=O)c1ccc(Cl)cc1 [Indomethacin, reference compound]
ED50 ([1]; Table V, oral, read-out: ED50% established arthritis): 0.3 mg/kg
ED50 ([2]; po): 3 mg/kg
effectiveness in preventing development of arthritis compared with treating established arthritis [2]: less effective in preventing the development of arthritis in rats than in treating the inflammation in established arthritis
effect on number of plaque forming cells (PFC) [3]: had no effect on the number of PFC
mean plaque forming cells per million spleen cells (N = 20) ([3]; daily oral dose 1.0 mg/kg): 694 cells per million spleen cells
effect on immunologic reactions in rheumatoid inflammation [5]: have no effect on these immunologic reactions
effect on B lymphocyte proportion / lymphocyte population [4]: had no effect on the lymphocyte population
mean % B cells ([4]; daily oral dose 0.5 mg/kg): 57%

CC(C)Cc1ccc(C(C)C(=O)O)cc1 (centres unmarked) [ibuprofen]
effect on immunologic reactions in rheumatoid inflammation [5]: have no effect on these immunologic reactions

CC(=O)Oc1ccccc1C(=O)O [aspirin]
effect on immunologic reactions in rheumatoid inflammation [5]: have no effect on these immunologic reactions

O=P1(N(CCCl)CCCl)NCCCO1 (centres unmarked) [Cyclophosphamide, reference compound]
ED50 [1, 6]: 10 mg/kg
ED50 [2, 8]: 1.5 mg/kg
effectiveness in preventing development of arthritis compared with treating established arthritis [2]: more effective in preventing the development of arthritis in rats than in treating established arthritis in rats
effect on number of plaque forming cells (PFC) [3]: reduced the PFC far below normal
mean plaque forming cells per million spleen cells (N = 20) ([3]; daily oral dose 5.0 mg/kg): 25 cells per million spleen cells
effectiveness in treatment of rheumatoid arthritis [5]: effective in the treatment of rheumatoid arthritis
toxicity for wide-spread use [5]: too toxic for wide-spread use
effect on B lymphocyte proportion / lymphocyte population [4]: reduced the B lymphocyte proportion to below normal
mean % B cells ([4]; daily oral dose 5 mg/kg): 25%

O=S(=O)(c1nc(-c2ccc(Cl)cc2)c(-c2ccccc2)[nH]1)C(F)(F)C(F)F [Example 86, 4(or 5)-(4-chlorophenyl)-5(or 4)-phenyl-2-(1,1,2,2-tetrafluoroethylsulfonyl)imidazole]
ED50 [1, 7]: 0.065 mg/kg
mean plaque forming cells per million spleen cells (N = 20) ([3]; daily oral dose 0.07 mg/kg): 412 cells per million spleen cells
mean plaque forming cells per million spleen cells (N = 20) ([3]; daily oral dose 0.7 mg/kg): 367 cells per million spleen cells
mean % B cells ([4]; daily oral dose 0.1 mg/kg): 48%
mean % B cells ([4]; daily oral dose 1.0 mg/kg): 42%

CCCCC1C(=O)N(c2ccccc2)N(c2ccccc2)C1=O [Phenylbutazone]
ED50 [1, 6]: 10 mg/kg
ED50 [2, 8]: 35 mg/kg
effectiveness in preventing development of arthritis compared with treating established arthritis [2]: less effective in preventing the development of arthritis in rats than in treating the inflammation in established arthritis
effect on immunologic reactions in rheumatoid inflammation [5]: have no effect on these immunologic reactions
mean % B cells ([4]; daily oral dose 20 mg/kg): 53%

FC(F)C(F)(F)Sc1nc(-c2ccccc2)c(-c2ccccc2)[nH]1 [Example 18, 4,5-Diphenyl-2-(1,1,2,2-tetrafluoroethylthio)imidazole]
ED50 [1, 6]: 0.75 mg/kg
ED50 [1, 7]: 0.75 mg/kg
ED50 [2, 8]: 2.3 mg/kg
mean plaque forming cells per million spleen cells (N = 20) ([3]; daily oral dose 1.5 mg/kg): 197 cells per million spleen cells
mean plaque forming cells per million spleen cells (N = 20) ([3]; daily oral dose 15 mg/kg): 320 cells per million spleen cells
mean % B cells ([4]; daily oral dose 1.5 mg/kg, pooled data from 2 experiments (N = 10)): 37%
mean % B cells ([4]; daily oral dose 15 mg/kg, pooled data from 2 experiments (N = 10)): 34%

O=S(=O)(c1nc(-c2ccc(F)cc2)c(-c2ccc(F)cc2)[nH]1)C(F)(F)C(F)F [Example 71, 4,5-bis(4-fluorophenyl)-2-(1,1,2,2-tetrafluoroethylsulfonyl)imidazole]
ED50 [1, 6]: 0.03 mg/kg
ED50 [1, 7]: 0.025 mg/kg
ED50 [2, 8]: 0.03 mg/kg
mean plaque forming cells per million spleen cells (N = 20) ([3]; daily oral dose 0.03 mg/kg): 499 cells per million spleen cells
mean plaque forming cells per million spleen cells (N = 20) ([3]; daily oral dose 0.3 mg/kg): 439 cells per million spleen cells
mean % B cells ([4]; daily oral dose 0.03 mg/kg, pooled data from 3 experiments (N = 15)): 38%
mean % B cells ([4]; daily oral dose 0.3 mg/kg, pooled data from 3 experiments (N = 15)): 41%
